Results on two compounds are retold here after patent US20120009257A1 (priority 2009, published 2012).

For series [1] the following is noted: drug substance; cited from earlier work.
The nature of series [2]: Bioequivalence study of fixed combination versus free combination, plasma PK by LC/MS/MS. The format is in vivo, healthy subjects. On the procedure:
Pharmacokinetic measurements were performed on blood collected from each subject. […] The PK parameters were determined in plasma, using non-compartmental methods.
AUC0-tlast: Area under the concentration-time curve from time zero to time tlast, where tlast is the last time point with measurable concentration (ng hr/ml).
AUC0-inf: Area under the plasma concentration-time curve from time zero to infinity (ng hr/ml).
Cmax: Maximum (peak) plasma concentration (ng/ml).
Tmax: Time to reach peak or maximum concentration (hr).
T1/2: Elimination half-life associated with the terminal slope (E) of a semilogarithmic concentration-time curve (hr).

As for `COCCCOc1cc(C[C@@H](C[C@H](N)[C@@H](O)C[C@H](C(=O)NCC(C)(C)C(N)=O)C(C)C)C(C)C)ccc1OC` [Aliskiren, 2(S),4(S),5(S),7(S)—N-(3-amino-2,2-dimethyl-3-oxopropyl)-2,7-di(1-methylethyl)-4-hydroxy-5-amino-8-[4-methoxy-3-(3-methoxy-propoxy)phenyl]-octanamide], the hygroscopicity entry in series [1] is on record as “highly hygroscopic”. In series [2] (aliskiren), the “intra-subject coefficient of variation (CV) for AUC0-inf” value amounted to 33.19%, the “intra-subject coefficient of variation (CV) for AUC0-tlast” value is 33.98% and the “intra-subject coefficient of variation (CV) for Cmax” value is recorded as 51.90%.

Take `CCCCC(=O)N(Cc1ccc(-c2ccccc2-c2nnn[nH]2)cc1)[C@H](C(=O)O)C(C)C` [Valsartan]: in series [2] (valsartan), the “intra-subject CV for AUC0-inf” value is 28.33%, the “intra-subject CV for AUC0-tlast” value came to 28.56% and the “intra-subject CV for Cmax” value is listed as 40.37%.
